Test results: US8586369B2, “Ion channel-forming peptides” (The Regents of the University of California, priority 2007, dated 2013)
Values joined by “and” are separate entries in the source; they are usually repeats but may differ in a detail not shown here. Equal entries are not always repeated. “Also recorded” adds a separate entry of the source.

Tests used:
[1] = tested on: Alkaline Phosphatase
Description: Monitoring the enzymatic hydrolysis of glycolic acid-O-phosphate with Alkaline Phosphatase by NMR: Glycolic acid-O-phosphate (1.1 mg, 7.1 μmol) was added to a buffer containing 0.5 mL of 100 mM KCl, 140 mM Na2CO3 buffer in 0.5 mL of D2O at pD 9.4. […] (0.5 mg, 1 nmol) was added to the solution and ^31P-NMR spectra were taken at various time points to monitor the enzymatic hydrolysis of glycolic acid-O-phosphate to glycolic acid. ^31P-NMR (300 MHz, D2O): glycolic acid-O-phosphate: δ 3.33 ppm, free inorganic phosphate: 2.54 ppm using an internal 85% phosphoric acid standard (set to 0 ppm).

[2] = Single-channel conductance of homodimeric gA pores in planar lipid bilayers made from DiPhyPC (Example 1); type: biochemical; settings: for Single-channel conductance γ: HEPES pH 7.4, DiPhyPC bilayers, slope of I-V curves; for Single-channel conductance γ / γ at pH 7.4: homodimers; for γ at pH 7.4: DiPhyPC bilayers; for γ-ratio to gA-gA: pH 7.4, DiPhyPC
Description: Formation of planar lipid bilayers: We formed most planar lipid bilayers with the “folding technique.” We used a Teflon film (Eastern Scientific Inc, pore diameter 0.18-0.25 mm) was pretreated on each side with 2.5 μL of 5% hexadecane in pentane and air dried. This film was mounted using vacuum grease (Dow Corning, High vacuum grease) to a custom made Teflon chamber separating two buffer compartments each with a volume capacity of 4 mL. After adding 1 mL of electrolyte (0.01 M to 1.00 M KCl buffered with HEPES pH 7.4) to each compartment, lipids were spread from a solution in pentane onto the surface of the electrolyte solutions (specifically, 4-6 μL from 25 mg mL-l solution DiPhyPC or from 6.25 mg mL-l each of 50% DOPS and 50% POPE or from 25 mg mL-l DODAP mixed with 25 mg mL-l DiPhyPC in a 1:9 ratio. Three additional milliliters of electrolyte solution were added to each side of the chamber to raise the liquid levels above the aperture. We formed the bilayers from apposition of two monolayers of lipids using the method described by Montal et al. (Proc. Natl. Acad. Sci. U.S.A. 1972, 69, 3561-3566). Briefly, bilayers were obtained by consecutively raising the liquid level in each compartment until the pore was completely covered by electrolyte. If at this point the pore was not closed by a lipid bilayer, then the liquid level in one or both compartments was lowered below the pore level by aspirating electrolyte into a 3 mL syringe, followed by raising the electrolyte solution again.
Planar lipid bilayers were also made with the “painting technique”. We pretreated each side of a pore in a bilayer cup (Warner Instruments, Delrin perfusion cup, volume 1 mL, pore diameter 250 μm) with ˜2 μL of a 25 mg mL-l solution of DiPhyPC in hexane. After adding recording buffer (0.01 M KCl to 1.00 M KCl buffered with HEPES, pH=7.4) to both compartments of the bilayer setup, we “painted” a solution of 20 mg mL-l DiPhyPC in n-decane over the pore by using a paint brush with a fine tip. We followed the thinning of the decane droplet to form a planar bilayer by monitoring the capacitance of the bilayer. After verifying that bilayers were stable for several minutes (in the range of ±200 mV applied voltage) and that the capacitances were above 80-90 pF, gA was added (4-8 μL from 1 ng mL-l in ethanol), derivatives 1 or 2 (2-10 μL from 100 ng mL-l in ethanol), or derivative 3 (4-10 μL from 100 ng mL-l in ethanol) directly to the bilayer chambers.
Ion channel measurements: We performed single channel recordings in “voltage clamp mode” using Ag/AgCl electrodes (Warner Instruments) in each compartment of the bilayer chambers. Data acquisition and storage was carried out using custom software in combination with either an EPC-7 patch clamp amplifier from List Medical Electronic (set at a gain of 100 mV pA-1 and a filter cutoff frequency of 3 kHz) or a Geneclamp 500 amplifier from Axon Instruments (with a CV-5B 100GU headstage, set at a gain of 100 mV pA-1 and filter cutoff frequency of 1 kHz). We used the EPC-7 amplifier for most folded bilayers and the Geneclamp 500 amplifier for most painted bilayers. The data acquisition boards for both amplifiers were set to a sampling frequency of 15 kHz. All current traces shown in the figures were further filtered using a digital Gaussian low-pass filter with a cutoff frequency of 30 Hz. The current traces we used to generate all data that was recorded at applied potentials s 50 mV were filtered at 10 Hz.
We performed the analysis of the single channel current traces by computing histograms of the currents from the original current-time traces with ClampFit 9.2 software from Axon Instruments. From these histograms we extracted the main current values by fitting a Gaussian function to the peaks in the histograms. […] Single channel conductances reported in this paper always refer to the main conductance state (i.e. to the dominant peaks in the current histograms).

[3] = Single-channel conductance in negatively charged planar bilayers (50% POPE, 50% DOPS); type: biochemical; settings: 0.01 M KCl
Text: The data acquisition boards for both amplifiers were set to a sampling frequency of 15 kHz.

[4] = Single-channel conductance of homodimeric gA pores in planar lipid bilayers made from DiPhyPC (Example 1); type: biochemical; settings: 20 mM KCl plus 10 mM KOH; for γ at pH 12: DiPhyPC bilayers, homodimers
[5] = target: bovine carbonic anhydrase II (CA, EC 4.2.1.1) (Bos taurus, UniProt P00921); assay: Detection of protein-ligand binding interactions using ion channel measurements; settings: 12 pM structure 11, 50 μM CA, 140 mM KCl, 10 mM phosphate pH 8.0, 100 mV
Description: Benzenesulfonamides are well-known ligands for carbonic anhydrase II (CA, EC 4.2.1.1), a Zn^2+-containing protein.
Detection of protein-ligand binding interactions using ion channel measurements: About 1 μL (from a 100 ng mL^−1 solution in ethanol) of structure 11 (to afford a final concentration of 12 pM of structure 11) was added to each compartment of a bilayer setup containing as electrolyte 140 mM KCl and 10 mM phosphate buffer (pH 8.0). The conductance was recorded at 100 mV.

[6] = Single channel recordings of gA derivatives in planar lipid bilayers (Example 2); type: biochemical; settings: applied potential 100 mV, 20 mM KCl, 0.2 mM HEPES pH 7.4
Description: Formation of Planar Lipid Bilayers: Planar lipid bilayers were formed by the “folding technique.” Briefly, a film (e.g., Teflon®, Eastern Scientific Inc, pore diameter 0.1-0.2 mm) that was pretreated on both sides of the pore with 2 μL of 5% (v/v) hexadecane in pentane. This film was mounted using vacuum grease (Dow Corning, High vacuum grease) to a custom-made Teflon chamber separating two buffer compartments each with a volume capacity of 4 mL. After addition of 1 mL of electrolyte (20 mM KCl buffered with 0.2 mM HEPES pH 7.4 or 140 mM KCl buffered with 10 mM phosphate pH 8.0) to each compartment, lipids were spread at the air-water interface of the electrolyte solution in both compartments. Three additional milliliters of the same electrolyte solution were added to each compartment to raise the liquid level above the aperture in the Teflon film. The bilayers were formed on the pore of the Teflon film by aspirating the electrolyte solution into a 3 mL syringe, followed by dispensing the electrolyte solution back into each compartment.
Ion Channel Measurements: Single channel recordings in “voltage clamp mode” were performed using Ag/AgCl pellet electrodes (Warner Instruments) in each compartment of the bilayer setup. Data acquisition and storage was carried out using custom software in combination with an EPC-7 patch clamp amplifier from Heka (set at a gain of 10 mV pA^−1 and a filter cutoff frequency of 3 kHz). The data acquisition board for the amplifier was set to a sampling frequency of 15 kHz. All current traces shown in the figures were further filtered using a digital Gaussian low-pass filter with a cutoff frequency of 4 Hz.
The analysis of single channel current traces was performed by computing histograms of the currents from the original current versus time traces with ClampFit 9.2 software from Axon Instruments. From these histograms, main current values were extracted by fitting a Gaussian function to the peaks in the histograms. […]

bovine carbonic anhydrase II (CA, EC 4.2.1.1), sequence (P00921 whole entry): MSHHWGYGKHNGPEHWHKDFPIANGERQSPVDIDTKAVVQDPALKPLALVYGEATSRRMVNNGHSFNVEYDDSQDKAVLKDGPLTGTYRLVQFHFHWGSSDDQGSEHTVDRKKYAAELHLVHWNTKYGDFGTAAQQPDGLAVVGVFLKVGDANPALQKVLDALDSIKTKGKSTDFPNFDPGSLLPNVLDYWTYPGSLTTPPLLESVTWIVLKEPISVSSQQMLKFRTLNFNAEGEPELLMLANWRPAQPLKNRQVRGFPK

Molecule: O=C(O)COP(=O)(O)O [glycolic acid-O-phosphate]
- time after which the enzymatic hydrolysis was completed ([1]; 7.1 μmol substrate, 1 nmol enzyme, 100 mM KCl, 140 mM Na2CO3, pD 9.4): 50 min
- hydrolysis by AP ([1]; 31P-NMR spectroscopy): hydrolyzed by AP

Molecule: Gramicidin A [gA, reference compound]
- Single-channel conductance γ ([2]; 0.01 M KCl): 2.7 ± 0.5 pS
- γ at pH 7.4 ([2]; 20 mM KCl): 4.5 ± 0.1 pS
- Single-channel conductance γ ([2]; 0.10 M KCl): 10.3 ± 0.1 pS
- Single-channel conductance γ ([2]; 1.00 M KCl, listed as gA-gA): 20 pS and 20.0 ± 0.2 pS
- Single-channel conductance γ in negatively charged bilayers ([3]; 0.1 mM HEPES pH 7.4, listed as gA-gA): 26.9±0.2 pS and 27 pS
- γ at pH 12 [4]: 7.8 ± 0.2 pS

Molecule: gA-triazole-benzenesulfonamide [structure 11]
- effect of CA on ion channel activity [5]: suppression of ion channel activity; also recorded: reduction of ion channel activity
- effect of CA on ion channel activity ([5]; listed as gA-sulfonamide 11): reduces the observed transmembrane ion flux

Molecule: gramicidamine
- conductance compared with gA-gA at pH 7.4 ([2]; 20 mM KCl, DiPhyPC): significantly less
- γ at pH 7.4 ([2]; 20 mM KCl): 3.8 ± 0.2 pS
- ion channel activity in planar lipid bilayers [6]: retained well-defined ion channel activity
- conductance compared with gA-gA at pH 12 ([4]; DiPhyPC): indistinguishable
- γ at pH 12 [4]: 7.7 ± 0.9 pS

Molecule: gramicidyl taurinyl succinate [compound 1]
- Single-channel conductance γ ([2]; 0.01 M KCl): 3.5 ± 0.3 pS
- γ-ratio to gA-gA ([2]; 0.01 M KCl): about 1.3
- γ-ratio to gA-gA ([2]; 0.01 M KCl, listed as 1-1): 1.3
- Single-channel conductance γ ([2]; 0.10 M KCl): 11.0 ± 0.4 pS
- γ-ratio to gA-gA ([2]; 0.10 M KCl): 1.1
- Single-channel conductance γ ([2]; 1.00 M KCl): 19.5 ± 0.4 pS
- γ-ratio to gA-gA ([2]; 1.00 M KCl): 1.0
- difference in single channel conductance compared to gA ([2]; approximately 0.10 M KCl): 7%
- difference in single channel conductance compared to gA ([2]; approximately 1.00 M KCl): 3%
- Single-channel conductance γ in negatively charged bilayers ([3]; 0.1 mM HEPES pH 7.4): 26.8±0.9 pS
